Laboratory results from patent US20210388029A1, “CYTOPLASMIC TRANSDUCTION PEPTIDE AND INTRACELLULAR MESSENGER COMPRISING SAME” (priority 2016, published 2021).
No end group written: not given here.

System: HeLa cells
Experiment: Cell membrane penetration activity in HeLa cells, immunostaining / confocal laser scanning microscope
Type: cell-based
Details: 3 hours; for fluorescence signal versus concentration (zinc finger domain peptides): FITC-conjugated
Method: HeLa cells were seeded into a 12-well plate having glass at a density of 1×10^5 cells/well, and then cultured for 24 hours to attach the cells to the glass. Then, cells were treated with FITC-NC peptides at […] concentration for 3 hours. After 3 hours, the cells were washed three times with PBS, the cells were fixed with 3.7% formaldehyde for 20 minutes, and the cells were treated with PBS containing 0.2% Triton X-100 to increase the cell membrane penetration activity. Then, the cells were blocked with 3% BSA for 1 hour, reacted with lamin A/C antibody (Sigma-Aldrich, USA) at room temperature for 2 hours, and washed three times with PBS. Next, the cells were treated with Cy3-conjugated secondary antibody (Jackson ImmunoResearch, USA) at room temperature for 1 hour, washed twice with PBS, and then stained with DAPI (4′,6-diamidino-2-phenylindol) for 10 minutes. The HeLa cell-attached glass was removed and placed on a slide glass.
The HeLa cells were seeded into a 12-well plate containing glass at a density of 1×10^5 cells/well, and then cultured for 24 hours to attach the cells to the glass. Thereafter, the FITC-NC peptide, the trans-activating transcriptional activator peptide (FITC-Tat peptide), the FITC-MA11 peptide, the protein transduction domain-ys peptide (FITC-PTD-ys peptide), the translocation motif peptide (FITC-TLM peptide) and FITC-TD1 peptide were treated with the HeLa cells for 3 hours. After 3 hours, the cells were washed 3 times with PBS and the cells were fixed with 3.7% formaldehyde for 20 minutes. The cells were treated with PBS containing 0.2% Triton X-100 to increase cell membrane penetration activity and blocked with 3% BSA for 1 hour. Then, the cells were reacted with tubulin antibody (Santa Cruz Biotechnology, USA) at room temperature for 2 hours and washed three times with PBS. The cells were treated with Cy3 secondary antibody. They were reacted at room temperature for 1 hour, washed twice with PBS, and stained with DAPI for 10 minutes. The HeLa cell-attached glass was removed and placed on a slide glass.
Further, in order to identify a change in cell membrane penetration activity by FITC-NC peptide, the HeLa cells were treated with hexapeptide, FITC-hexapeptide, FITC-NC-hexapeptide, FITC-13NC35 peptide and FITC-29NC50 peptide for 3 hours in the same manner as above and observed with a confocal laser scanning microscope. Meanwhile, the amino acid sequences of the hexapeptide, PTD-ys peptide, TLM peptide, TD1 peptide, NC-hexapeptide, 13NC35 peptide and 29NC50 peptide used are shown in Table 5 below.

Q: With “13NC35 peptide: 13th to 35th amino acid of HIV-NC with first zinc finger domain, SEQ ID NO: 10 VKCFNCGKEGHTARNCRAPRKKG (cysteine pairing not given here; also: FITC label, place not given here)” as the substance, how does the “fluorescence signal versus concentration (zinc finger domain peptides)” value read?
A: Its value is “fluorescence signals were increased in proportion to the concentration”.

Q: “29NC50 peptide: 29th to 50th amino acid of HIV-NC with second zinc finger domain, SEQ ID NO: 11 RAPRKKGCWKCGKEGHQMKDCT (cysteine pairing not given here; also: FITC label, place not given here)” was tested. Which “fluorescence signal versus concentration (zinc finger domain peptides)” value did it give?
A: The value was “fluorescence signals were increased in proportion to the concentration”.

Q: For “FITC-TLM peptide: translocation motif peptide, SEQ ID NO: 7 PLSSIFSRIGDP, FITC-conjugated [reference compound]”, which “cell membrane penetration (confocal)” value (20 μM) is on record?
A: The value was “hardly penetrable to the cell membrane”.

Q: Which “cell membrane penetration of polypeptide cargo (confocal)” value (FITC-labelled) does the source give for “hexapeptide: polypeptide cargo, SEQ ID NO: 5 EEMQRR (also: FITC label, place not given here)” here?
A: Its value is “did not penetrate the cell membrane”.
